In US4048007A, “Method of removing solvent residues from aqueous paper pulps” (The Dow Chemical Company, priority 1976, dated 1977):
Read-outs that look alike come from different tables or passages of the source.

Legend:
[1] = Henry's Law constant H of solvent in water; format: physicochemical; settings: for Value of H: Table II; for Henry's Law constant, H: Table I
Experimental: In a first or single stage, the incoming gas contains no solvent, yo is 0 and Em = y/y*. y is determined by analyzing a sample of the off-gas and y* can be calculated from the total vapor pressure P, the mole fraction (x) of the solvent in the liquid leaving the stage and H, the Henry's Law constant. That is, y*P (the partial pressure of the solvent) is equal to Hx, or y* = Hx/P.
For an aqueous solution of a sparingly soluble chlorinated hydrocarbon (for which Henry's law holds reasonably well over the full range of solubility up to saturation), H can be determined from the solvent solubility (c) in water and the vapor pressure (po) of the pure solvent, at a particular temperature; i.e., H = po /C. solubilities, vapor pressures and H values, at 20° C., are given below for three chlorinated hydrocarbon solvents.
The effect on H of operating at temperatures somewhat above or below […] is indicated in the following tabulation: […]

[2] = Air stripping of solvent from water (no fibers), time to strip 90% (Example 4); format: physicochemical; settings: 200 ml water, 5 g solvent, air stripped as in Example 2 (20° C., 2 cubic feet per minute)
Experimental: In a single tray apparatus similar to that in Example 1, air at 20° C. was passed at a rate of 2 cubic feet per minute through 200 ml. batches of various consistency aqueous Kraft pulps containing initially 1% by volume (2.0 ml, or […]) of dispersed perchloroethylene, C2 Cl4, which is very sparingly soluble in water (150 ppm). After 3 minutes, the residual weight of C2 Cl4 found was:
200 ml. batches of water (no fibers) containing 5 g. of solvent were stripped with air as in Example 2. The time required to strip 90% of the solvent was measured: […]

[3] = cited from earlier work
[4] = cited from earlier work; for Vapor Pressure at 20° C.: Example 4; for Vapor Pressure of pure solvent: 20° C., Table I
[5] = Dissolved solvent found in 0.5% Kraft pulp prepared with solvent-saturated water (Example 5); format: physicochemical; settings: 0.5% consistency Kraft pulp, water previously saturated with perchloroethylene
Experimental: A 0.5% consistency Kraft pulp suspension was prepared with water previously saturated with perchloroethylene.

SMILES | Value of H ([1]; 15° C.) [mm Hg/ppm] | Henry's Law constant, H ([1]; 20° C.) [mm Hg/ppm] | Value of H ([1]; 20° C.) [mm Hg/ppm] | Value of H ([1]; 25° C.) [mm Hg/ppm] | Time Required to strip out 90% [2] [s] | Solubility in water ([3]; 20° C., Table I) | Vapor Pressure at 20° C. [4] [mm Hg] | dissolved C2 Cl4 content of suspension [5] [ppm] | Solubility in water ([3]; Example 2, very sparingly soluble in water) [ppm] | Vapor Pressure of pure solvent [4] [mm Hg]
ClCCl [Methylene Chlorine] | 0.0183 | 0.0241 | 0.0241 | 0.0321 | 9 | 13,900 ppm | 340 | – | – | –
ClC(Cl)=C(Cl)Cl [Perchloroethylene, perchloroethylene] | 0.0760 | 0.1000 | 0.1000 | 0.1267 | 125 | 147 ppm | 15 | 176 | 150 | 14.7
CC(Cl)(Cl)Cl [1,1,1-Trichloroethane] | – | 0.1429 | – | – | 32 | 700 ppm | 100 | – | – | 100
